Columns and labels:
[1] = Single intravenous (IV) dose pharmacokinetics study in rats; plasma concentration of MDMA by LC-MS/MS
[2] = Single oral (PO) dose pharmacokinetics study in rats; plasma concentration of MDMA (and prodrug) by LC-MS/MS; conditions: for AUC(0-t): po, mean
[3] = male, Sprague-Dawley, rat, plasma, iv, 1 mg/kg
[4] = 0.50 h after oral dosing of prodrug 10 mg/Kg, male SD rats
[5] = 1.00 h after oral dosing of prodrug 10 mg/Kg, male SD rats
[6] = 2.00 h after oral dosing of prodrug 10 mg/Kg, male SD rats
[7] = 4.00 h after oral dosing of prodrug 10 mg/Kg, male SD rats
[8] = 7.00 h after oral dosing of prodrug 10 mg/Kg, male SD rats
[9] = 24.0 h after oral dosing of prodrug 10 mg/Kg, male SD rats

Structure (SMILES)	Tlast ([1]; MDMA dosed IV 1 mg/Kg, male SD rats, analyte MDMA, median) [h]	Vd [1, 3] [L/kg]	clearance [1, 3] [mL/min/kg]	Tlast ([2]; MDMA dosed PO 10 mg/Kg, male SD rats, analyte MDMA, median) [h]	bioavailability ([2]; male, Sprague-Dawley, rat, plasma, oral, 10 mg/kg) [%]	AUC(0-t) ([2]; male, Sprague-Dawley, rat, plasma, 10 mg/kg, AUC0-2, MDMA dosed PO 10 mg/Kg, male SD rats, analyte MDMA) [ng·h/mL]	AUC(0-t) ([2]; male, Sprague-Dawley, rat, plasma, 10 mg/kg, AUC0-24, MDMA dosed PO 10 mg/Kg, male SD rats, analyte MDMA) [ng·h/mL]	AUC(0-t) ([2]; male, Sprague-Dawley, rat, plasma, 10 mg/kg, AUC0-last, MDMA dosed PO 10 mg/Kg, male SD rats, analyte MDMA) [ng·h/mL]	Mean plasma concentration of metabolite MDMA [2, 4]	Mean plasma concentration of metabolite MDMA [2, 5]	Mean plasma concentration of metabolite MDMA [2, 6]	Mean plasma concentration of metabolite MDMA [2, 7]	Mean plasma concentration of metabolite MDMA [2, 8]	Mean plasma concentration of metabolite MDMA [2, 9]
CNC(C)Cc1ccc2c(c1)OCO2 (centres unmarked) [MDMA, 3,4-Methylenedioxymethamphetamine]	2.00	8.18	274	7.00	104	638	1810	1710						
CC(Cc1ccc2c(c1)OCO2)N(C)C(=O)C1CCOCC1 (centres unmarked) [Pyran amide prodrug of MDMA, N-[2-(2H-1,3-Benzodioxol-5-yl)-1-methyl-ethyl]-N-methyl-tetrahydro-2H-pyran-4-carboxamide]									BLQ (BLQ: Below Lower Limit of Quantification (0.5 ng/mL))	BLQ (BLQ: Below Lower Limit of Quantification (0.5 ng/mL))	BLQ (BLQ: Below Lower Limit of Quantification (0.5 ng/mL))	BLQ (BLQ: Below Lower Limit of Quantification (0.5 ng/mL))	BLQ (BLQ: Below Lower Limit of Quantification (0.5 ng/mL))	BLQ (BLQ: Below Lower Limit of Quantification (0.5 ng/mL))
CC(Cc1ccc2c(c1)OCO2)N(C)C(=O)CN(C)C(=O)[C@@H](N)Cc1ccccc1 (stereo partly drawn) [SarcPhe prodrug of MDMA, (2S)-2-amino-N-[2-[[2-(1,3-benzodioxol-5-yl)-1-methyl-ethyl]-methyl-amino]-2-oxo-ethyl]-N-methyl-3-phenyl-propanamide]									BLQ (BLQ: Below Lower Limit of Quantification (0.5 ng/mL))	BLQ (BLQ: Below Lower Limit of Quantification (0.5 ng/mL))	BLQ (BLQ: Below Lower Limit of Quantification (0.5 ng/mL))	BLQ (BLQ: Below Lower Limit of Quantification (0.5 ng/mL))	BLQ (BLQ: Below Lower Limit of Quantification (0.5 ng/mL))	BLQ (BLQ: Below Lower Limit of Quantification (0.5 ng/mL))
CC(Cc1ccc2c(c1)OCO2)N(C)C(=O)OC1CCOC1 (centres unmarked) [THF carbamate prodrug of MDMA, tetrahydrofuran-3-yl N-[2-(1,3-benzodioxol-5-yl)-1-methyl-ethyl]-N-methyl-carbamate]									BLQ (BLQ: Below Lower Limit of Quantification (0.5 ng/mL))	BLQ (BLQ: Below Lower Limit of Quantification (0.5 ng/mL))	BLQ (BLQ: Below Lower Limit of Quantification (0.5 ng/mL))	BLQ (BLQ: Below Lower Limit of Quantification (0.5 ng/mL))	BLQ (BLQ: Below Lower Limit of Quantification (0.5 ng/mL))	BLQ (BLQ: Below Lower Limit of Quantification (0.5 ng/mL))
CC(Cc1ccc2c(c1)OCO2)N(C)C(=O)C(C)(C)C (centres unmarked) [Tert-butyl amide prodrug of MDMA, N-[2-(2H-1,3-Benzodioxol-5-yl)-1-methyl-ethyl]-N-methyl-2,2-dimethylpropionamide]									BLQ (BLQ: Below Lower Limit of Quantification (0.5 ng/mL))	BLQ (BLQ: Below Lower Limit of Quantification (0.5 ng/mL))	BLQ (BLQ: Below Lower Limit of Quantification (0.5 ng/mL))	BLQ (BLQ: Below Lower Limit of Quantification (0.5 ng/mL))	BLQ (BLQ: Below Lower Limit of Quantification (0.5 ng/mL))	BLQ (BLQ: Below Lower Limit of Quantification (0.5 ng/mL))
CC(Cc1ccc2c(c1)OCO2)N(C)C(=O)OC(C)(C)C (centres unmarked) [Tert-butyl carbamate prodrug of MDMA, tert-butyl N-[2-(1,3-benzodioxol-5-yl)-1-methyl-ethyl]-N-methyl-carbamate]									BLQ (BLQ: Below Lower Limit of Quantification (0.5 ng/mL))	BLQ (BLQ: Below Lower Limit of Quantification (0.5 ng/mL))	BLQ (BLQ: Below Lower Limit of Quantification (0.5 ng/mL))	BLQ (BLQ: Below Lower Limit of Quantification (0.5 ng/mL))	BLQ (BLQ: Below Lower Limit of Quantification (0.5 ng/mL))	BLQ (BLQ: Below Lower Limit of Quantification (0.5 ng/mL))
CC(C)[C@H](N)C(=O)N(C)C(C)Cc1ccc2c(c1)OCO2 (stereo partly drawn) [Valine prodrug of MDMA, (2S)-2-amino-N-[2-(1,3-benzodioxol-5-yl)-1-methyl-ethyl]-N,3-dimethyl-butanamide]									BLQ (BLQ: Below Lower Limit of Quantification (0.5 ng/mL))	BLQ (BLQ: Below Lower Limit of Quantification (0.5 ng/mL))	BLQ (BLQ: Below Lower Limit of Quantification (0.5 ng/mL))	BLQ (BLQ: Below Lower Limit of Quantification (0.5 ng/mL))	BLQ (BLQ: Below Lower Limit of Quantification (0.5 ng/mL))	BLQ (BLQ: Below Lower Limit of Quantification (0.5 ng/mL))
CC(Cc1ccc2c(c1)OCO2)N(C)C(=O)OCC(C)(C)COC(=O)C(C)(C)C (centres unmarked) [[3-[[2-(1,3-Benzodioxol-5-yl)-1-methyl-ethyl]-methyl-carbamoyl]oxy-2,2-dimethyl-propyl] 2,2-dimethylpropanoate]									BLQ (BLQ: Below Lower Limit of Quantification (0.5 ng/mL))	BLQ (BLQ: Below Lower Limit of Quantification (0.5 ng/mL))	BLQ (BLQ: Below Lower Limit of Quantification (0.5 ng/mL))	BLQ (BLQ: Below Lower Limit of Quantification (0.5 ng/mL))	BLQ (BLQ: Below Lower Limit of Quantification (0.5 ng/mL))	BLQ (BLQ: Below Lower Limit of Quantification (0.5 ng/mL))
